Results from patent publication US20220402867A1, “SULFO-SUBSTITUTED BIARYL COMPOUND OR SALT THEREOF, PREPARATION METHOD THEREFOR, AND USE THEREOF” (Shanghai Litedd Co., Ltd., priority 2019, published 2022).
Where two headings read alike, the source gives them in different places.

How the values were obtained:
[1] = Pharmacokinetic (PK) assay in mice; type: in vivo; details: CD-1 mice; for CL_obs: values marked **; for AUC(0-t) / Cmax / half-life / Vd / bioavailability: mouse, plasma; for Vd: read-out: Vss; for bioavailability: Po 5 mg/kg vs IV 1 mg/kg
Method: The PK of each compound was determined as follows: 6 CD-1 mice (obtained from Shanghai Lingchang Biotechnology Co., Ltd.) were divided into two groups, 3 mice in each group. One group was administered intravenously at a dose of 1 mg/kg, and the vehicle was 5% DMSO/40% PEG400/55% (20% 3-CD); one group was administered by oral gavage at a dose of 5 mg/kg, and the vehicle was DMSO/1% methylcellulose (1:99). Blood samples were collected from saphenous vein of lower leg in each group at 0, 0.083, 0.25, 0.5, 1, 2, 4, 6, 8 and 24 h after administration. Approximately 40 μL of the blood samples were collected into anticoagulant tubes containing EDTA-K2. Immediately after collection, the tubes were inverted at least 5 times to ensure uniform mixing, and then placed on ice. The blood samples collected at each time point were centrifuged at 4° C., 8000 rpm for 5 minutes to obtain plasma. Another 1.5 mL centrifuge tube was marked with the compound name, animal number, and time point, and the plasma was transferred to this tube. The plasma was stored at −80° C. until analysis.
Compound concentrations in plasma were determined by UPLC-MS/MS method, and the pharmacokinetic parameters were calculated by Phoenix WinNolin 6.4 pharmacokinetic software on the obtained data.

[2] = molecular target: T1, GST-RORγ LBD (263-509) (Homo sapiens, UniProt P51449); assay: TR-FRET assay of agonistic activity on RORγ receptor; type: biochemical; details: for EC50: TR-FRET, GST-RORγ LBD with Biotin-SRC1; for Emax %: maximum activation rate, TOP of fitted curve
T1 construct: GST-RORγ LBD ((263-509) (produced at ChemPartner))
T1 sequence (P51449 263-509): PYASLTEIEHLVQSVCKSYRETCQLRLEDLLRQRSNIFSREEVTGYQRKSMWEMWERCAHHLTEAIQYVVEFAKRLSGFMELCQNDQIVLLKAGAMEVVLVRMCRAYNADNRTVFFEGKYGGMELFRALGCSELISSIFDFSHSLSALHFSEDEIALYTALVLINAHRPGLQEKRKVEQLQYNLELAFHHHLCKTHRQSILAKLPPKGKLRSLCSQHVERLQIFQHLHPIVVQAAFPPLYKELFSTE
Method: A time-resolved fluorescence resonance energy transfer (TR-FRET) assay was used for the compounds of the present disclosure, to determine the agonistic activity of the compounds on the RORγ protein receptor. The agonistic activity is expressed by the concentration for 50% of maximal effect (EC50). The experiment was performed basically with reference to the methods described in ONCOIMMUNOLOGY, 2016, VOL. 5, NO. 12, e1254854.
1. Preparation of RORγ Basal Buffer
A 100 mL basal buffer was prepared, mixed homogeneously and stored for use;
The compounds of the examples shown in the table below were prepared into solutions with DMSO as the solvent, serially diluted at 3-fold dilution to 10 concentrations starting from 10 mM, and added to the corresponding wells of a 384-well plate with each concentration of each compound in duplicate;
a. A 75 nM solution of GST-RORγ LBD ((263-509) (produced at ChemPartner)) and a 4 nM solution of Biotin-SRC1 (Glsbiochem) were prepared with the above basal buffer. The two solutions were 1:1 mixed evenly, and 10 μL of the mixed solution was added into each well of the above 384-well plate. The plate was immediately centrifugated at 1000 rpm for 10 seconds; b. A 1 nM solution of Anti-GST Eu (Cisbio, #61GSTKLA) and a 50 nM solution of SA-APC (Cisbio, […]) were prepared with the above basal buffer. The two solutions were 1:1 mixed evenly, and 10 μL of the mixed solution was added into each well of the above 384-well plate. The plate was immediately centrifugated at 1000 rpm for 10 seconds; c. The resulting 384-well plate was incubated at room temperature for 15 minutes. Data were read on an Envision microplate reader, EC50 values and E max % were calculated.
a. Readings were taken at 665 nm and 615 nm wavelengths respectively on the Envision Microplate Reader, and the ratios between them were normalized. b. Calculation was carried out with the following equation: […]
wherein X is the reading of compounds, Min is the reading of the blank solution, and Max is the reading of 10 μM SRC. c. The concentration-response curve data were fitted by a four-parameter logistic nonlinear regression model, and Emax was the TOP value of the fitted curve.

[3] = Metabolic stability in mouse liver microsomes; type: in vitro ADME, CD-1 mice
Excerpt: (§1) According to standard methods of in vitro metabolic stability studies in the art, eg., the methods described in Kerns, Edward H. and Di Li (2008). Drug-like Properties: Concepts, Structure Design and Methods: from ADME to Toxicity Optimization. San Diego: Academic Press; Di, Li et al., Optimization of a Higher Throughput Microsomal Stability Screening Assay for Profiling Drug Discovery Candidates, J. Biomol. Screen. 2003, The method described in 8(4), 453, the liver microsomal metabolic stability test of the compounds of the present disclosure was carried out analogously as follows.
(§2) The incubation system contained 0.5 mg protein/mL microsomes, cofactors, and PBS, was pre-incubated at 37° C. for 3 min, and then added the substrate (i.e., the test compounds) to initiate the reaction. Samples were taken at 0, 1, 5, 10, 15, 20, 30 and 60 min from the start of the reaction, and an appropriate terminator was added to terminate the reaction.
(§3) The terminator was an ice acetonitrile solution containing 100 ng/mL tolbutamide and 100 ng/mL labetalol.
(§4) Sample treatment (n=3): each appropriate sample was added, vortexed and centrifuged at high speed. The supernatants were collected, and the substrate was detected by HPLC-MS/MS. The peak area at the 0 min was taken as 100%. The peak areas at other time points were converted to percentage of the remaining amount. The natural logarithms of the percentage of remaining amount at each time point was plotted against the incubation time, and the slope (−k) was calculated by linear regression. Then, Clint (uL/min/mg) and half-life (T½, min) of the compounds were calculated following the equation of the inherent clearance rate (Clint)=(k* volume of incubation solution)/mass of liver microsomes.

[4] = molecular target: T2, RORγt (RORγ-LBD chimeric receptor) (Homo sapiens, UniProt P51449); assay: Luciferase reporter gene assay of RORγt agonistic activity in HEK293T cells; type: cell-based; set-up: Emax: dose or concentration left out as unconfirmed; details: for Emax: HEK-293T
T2 construct: host or cells: HEK293T
T2 sequence (P51449 269-508 limits assumed): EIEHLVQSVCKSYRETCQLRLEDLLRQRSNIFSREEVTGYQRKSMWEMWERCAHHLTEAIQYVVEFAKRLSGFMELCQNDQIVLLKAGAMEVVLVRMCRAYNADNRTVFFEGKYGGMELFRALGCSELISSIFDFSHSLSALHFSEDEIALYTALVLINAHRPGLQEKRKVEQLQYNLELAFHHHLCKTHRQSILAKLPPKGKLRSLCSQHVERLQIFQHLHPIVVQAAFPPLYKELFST
Excerpt: This assay was basically carried out according to the method described in the literature ONCOIMMUNOLOGY, 2016, VOL. 5, NO. 12, e1254854.
The RORγ-LBD coding sequence was inserted into pBIND plasmid (Promega, E1581). This expression vector and a reporter vector (pGL4.35 carrying a stably integrated luciferase reporter gene driven by GAL4 promoter) were co-expressed in HEK293T host cells. When the agonist binds to the corresponding chimeric receptor, the chimeric receptor binds to the GAL4 binding site on the reporter gene carrier and stimulates reporter gene expression. The agonistic activity of the compound on RORγ was determined according to the intensity of the chemiluminescence signal.
1.1 All test compounds were serially diluted at 3-fold dilution with DMSO, with 10 serial dilutions starting from 10 mM; LIT-00093 solution was prepared similarly. […] 1.4 The compound plate was sealed and shaken for 5 min.
Cells were cultured according to ATCC standard operation, and 6*10^6 HEK293T cells were seeded into 100 mm cell culture dishes, cultured overnight in a 37° C., 5% CO2 incubator, and then transfected. Compounds of corresponding concentrations were added for treatment, and the Steady-Glo™ kit (Lot E 2520) was used for further detection.
Chemiluminescence values were detected with Envision 2104; EC50 values were calculated.
% Activity was calculated with the following equation: […]
RLU: […] R L Upositive: average value of positive control R L Uvehicle: average value of negative control
The log values of the compound concentration and % Activity were fitted using Graphad 8.0, to calculate EC50s of the compounds.

[5] = Metabolic stability in human liver microsomes; type: in vitro ADME; details: for microsomal CLint: 0.5 mg protein/mL
Excerpt: as §1, §2, §3, §4

SMILES	CL_obs ([1]; IV 1 mg/kg)	AUC(0-t) ([1]; IV 1 mg/kg) [ng·h/mL]	Cmax ([1]; IV 1 mg/kg) [ng/mL]	half-life ([1]; IV 1 mg/kg) [h]	Vd ([1]; IV 1 mg/kg, values marked *) [L/kg]	bioavailability [1] [%]	AUC(0-t) ([1]; Po 5 mg/kg) [ng·h/mL]	Cmax ([1]; Po 5 mg/kg) [ng/mL]	half-life ([1]; Po 5 mg/kg) [h]	EC50 [2] [µM]	Emax % [2] [%]	Emax [4] [%]	half-life [5] [h]	microsomal CLint [5] [µL/min/mg]	% Remaining (T = 60 min) [5] [%]	further results
COC[C@H](C(=O)Nc1cc(Cl)c(-c2ccc(S(=O)(=O)C3CC3)cc2)c(Cl)c1)c1ccc(S(C)(=O)=O)cc1 (single isomer, unassigned) [Example 35, (S)—N-(2,6-dichloro-4′-(cyclopropylsulfonyl)-[1,1′-biphenyl]-4-yl)-3-methoxy-2-(4-(methylsulfonyl)phenyl)propanamide or (R)—N-(2,6-dichloro-4′-(cyclopropylsulfonyl)-[1,1′-biphenyl]-4-yl)-3-methoxy-2-(4-(methylsulfonyl)phenyl)propanamide]	2.40** mL/min/kg	6880	1340	3.56	0.83	32.8	9140	700	12.3							
CS(=O)(=O)c1ccc(C(CO)C(=O)Nc2cc(Cl)c(-c3ccc(S(=O)(=O)C4CC4)cc3)c(Cl)c2)cc1 (single isomer, unassigned) [Example 37, (S)—N-(2,6-Dichloro-4′-(cyclopropylsulfonyl)-[1,1′-biphenyl]-4-yl)-2-(4-(methylsulfonyl)phenyl)-3-hydroxypropionamide or (R)—N-(2,6-dichloro-4′-(cyclopropylsulfonyl)-[1,1′-biphenyl]-4-yl)-2-(4-(methylsulfonyl)phenyl)-3-hydroxypropionamide]	7.21** mL/min/kg	2170	1320	2.2	1.27	15.8	1440	294	2.6	0.0274	197.0					
CCS(=O)(=O)c1ccc(C(CO)C(=O)Nc2cc(Cl)c(-c3ccc(S(=O)(=O)C4CC4)cc3)c(Cl)c2)cc1 (single isomer, unassigned) [Example 39, (S)—N-(2,6-dichloro-4′-(cyclopropylsulfonyl)-[1,1′-biphenyl]-4-yl)-2-(4-(ethylsulfonyl)phenyl)-3-hydroxypropionamide or (R)—N-(2,6-dichloro-4′-(cyclopropylsulfonyl)-[1,1′-biphenyl]-4-yl)-2-(4-(ethylsulfonyl)phenyl)-3-hydroxypropionamide]	8.22** mL/min/kg	2050	1080	3.7	1.53	17.1	1720	400	3	0.0135	181.3					
CS(=O)(=O)c1ccc(-c2c(Cl)cc(NC(=O)Cc3ccc(S(=O)(=O)CCO)cc3)cc2Cl)cc1 [Example 14, N-(2,6-Dichloro-4′-(methylsulfonyl)-[1,1′-biphenyl]-4-yl)-2-(4-(2-hydroxyethylsulfonyl)phenyl)acetamide]												40.7	1.55	14.9	61.7	% Remaining (T = 60 min) ([3]; 60 min): 87.3%; half-life ([3]; CD-1): > 2.42 h; microsomal CLint ([3]; CD-1, 0.5 mg protein/mL): < 9.6 µL/min/mg; EC50 [4]: 0.225 µM
CC(C)Cc1ccc(-c2c(Cl)cc(NC(=O)Cc3ccc(S(C)(=O)=O)cc3)cc2Cl)cc1C#N [LIT-00093, reference compound]												83.9	0.0783	295	0	EC50 ([4]; HEK293T, GAL4 luciferase reporter, read-out: EC50): 0.116 µM
CC(C)(C[C@H]1CN(S(=O)(=O)c2cccc(C(F)(F)F)c2)c2cc(-c3cc(F)cc(OC(F)F)c3)ccc2O1)C(=O)O [LYC-55716, reference compound]		256	353	2.63		21	269	52.6	5.35							Vd ([1]; IV 1 mg/kg): 7.23 L/kg
